Laboratory results taken from patent US9624228B2, “Inhibitors of ERK and methods of use” (KURA ONCOLOGY, INC., priority 2013, dated 2017).

Molecular target: ERK2 enzyme (Homo sapiens (Human), UniProt P28482)
Test: Inhibition assay of ERK (Z'-LYTE kinase assay, Ser/Thr 3 peptide substrate)
Format: biochemical
Conditions: In vitro, ERK2 enzyme 0.47 ng/μL, 100 μM ATP

Chain of ERK2 enzyme (P28482 whole entry): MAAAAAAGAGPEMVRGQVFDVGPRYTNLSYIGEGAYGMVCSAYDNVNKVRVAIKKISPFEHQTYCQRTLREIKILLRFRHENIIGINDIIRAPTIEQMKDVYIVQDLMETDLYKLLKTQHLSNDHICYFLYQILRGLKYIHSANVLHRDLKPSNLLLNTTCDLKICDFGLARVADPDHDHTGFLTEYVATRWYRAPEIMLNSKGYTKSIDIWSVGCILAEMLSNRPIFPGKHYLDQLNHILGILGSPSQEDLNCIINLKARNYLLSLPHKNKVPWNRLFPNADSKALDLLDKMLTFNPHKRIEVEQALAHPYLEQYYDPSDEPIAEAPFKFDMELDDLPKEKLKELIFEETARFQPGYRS

IC50 [nM]	Compound
< 50	Cc1cc(-c2n[nH]c3cc4c(cc23)CN(C2CCCCC2)C(=O)N4)ccn1 [Compound 204]
< 50	Cc1cc(-c2n[nH]c3cc4c(cc23)CN(C2CCCC2)C(=O)N4)ccn1 [Compound 205]
250 to 1000	Cc1cc(-c2n[nH]c3cc4c(cc23)CN([C@@H]2CCN(CC3CCCC3)C2)C(=O)N4)ccn1 [Compound 206]
50 to 250	Cc1cc(-c2n[nH]c3cc4c(cc23)CN([C@@H]2CCN(CCC(C)C)C2)C(=O)N4)ccn1 [Compound 207]
50 to 250	Cc1cc(-c2n[nH]c3cc4c(cc23)CN(CC2CCCN(Cc3ccccc3)C2)C(=O)N4)ccn1 (stereo not drawn) [Compound 208]
< 50	Cc1cc(-c2n[nH]c3cc4c(cc23)CN([C@@H]2CCCN(CC(=O)C(C)C)C2)C(=O)N4)ccn1 [Compound 209]
50 to 250	Cc1cc(-c2n[nH]c3cc4c(cc23)CN([C@@H]2CCCN(C3CCC3)C2)C(=O)N4)ccn1 [Compound 210]
< 50	Cc1cc(-c2n[nH]c3cc4c(cc23)CN(CC2CCOCC2)C(=O)N4)ccn1 [Compound 211]
< 50	Cc1cc(-c2n[nH]c3cc4c(cc23)CN(CC2CCCC2)C(=O)N4)ccn1 [Compound 212]
< 50	Cc1cc(-c2n[nH]c3cc4c(cc23)CN(CC2CCCCC2)C(=O)N4)ccn1 [Compound 213]
< 50	Cc1cc(-c2n[nH]c3cc4c(cc23)CN([C@@H]2CCN(CC(F)(F)F)C2)C(=O)N4)ccn1 [Compound 214]
50 to 250	Cc1cc(-c2n[nH]c3cc4c(cc23)CN([C@@H]2CCCN(C3CCCC3)C2)C(=O)N4)ccn1 [Compound 215]
< 50	Cc1cc(-c2n[nH]c3cc4c(cc23)CN([C@@H]2CCCN(C(C)C(F)(F)F)C2)C(=O)N4)ccn1 (stereo partly drawn) [Compound 216]
< 50	Cc1cc(-c2n[nH]c3cc4c(cc23)CN(Cc2ccccc2Cl)C(=O)N4)ccn1 [Compound 217]
< 50	Cc1cc(-c2n[nH]c3cc4c(cc23)CN(Cc2ccccc2C(F)(F)F)C(=O)N4)ccn1 [Compound 218]
< 50	Cc1cc(-c2n[nH]c3cc4c(cc23)CN(C2CCOC(C)(C)C2)C(=O)N4)ccn1 (stereo not drawn) [Compound 219]
< 50	Cc1cc(-c2n[nH]c3cc4c(cc23)CN(CCC2CCOCC2)C(=O)N4)ccn1 [Compound 220]
< 50	Cc1cc(-c2n[nH]c3cc4[nH]c(=O)c(C(O)c5ccccc5)cc4cc23)ccn1 (stereo not drawn) [Compound 221]
50 to 250	Cc1cc(-c2n[nH]c3cc4c(cc23)CN([C@@H]2CN(CC(F)(F)F)C[C@H]2c2ccccc2)C(=O)N4)ccn1 [Compound 222]
< 50	Cc1cc(-c2n[nH]c3cc4c(cc23)CN(C2CCC(F)(F)CC2)C(=O)N4)ccn1 [Compound 224]
< 50	Cc1cc(-c2n[nH]c3cc4c(cc23)CN(Cc2cc(F)cc(F)c2)C(=O)N4)cc(C)n1 [Compound 225]
< 50	Cc1cc(-c2n[nH]c3cc4c(cc23)CN(Cc2ccc(F)c(Cl)c2)C(=O)N4)cc(C)n1 [Compound 226]
< 50	Cc1cc(-c2n[nH]c3cc4c(cc23)CN(Cc2cccs2)C(=O)N4)cc(C)n1 [Compound 227]
< 50	Cc1cc(-c2n[nH]c3cc4c(cc23)CN(Cc2nc(C)c(C)s2)C(=O)N4)ccn1 [Compound 228]
< 50	Cc1cc(-c2n[nH]c3cc4c(cc23)CN(Cc2ccccc2)C(=O)N4)cc(C)n1 [Compound 229]
< 50	O=C1Nc2cc3[nH]nc(-c4ccc(N5CCOCC5)nc4)c3cc2CN1Cc1cccc(Cl)c1 [Compound 231]
< 50	Cc1cc(-c2n[nH]c3cc4c(cc23)CN(C2CCC(=O)N(Cc3ccccc3)C2)C(=O)N4)ccn1 (stereo not drawn) [Compound 232]

IC50 [nM]	Compound
< 50	Cc1cc(-c2n[nH]c3cc4c(cc23)CN(Cc2ccc(C(F)(F)F)cc2)C(=O)N4)cc(C)n1 [Compound 233]
< 50	Cc1cc(-c2n[nH]c3cc4c(cc23)CN(C(C)c2nccs2)C(=O)N4)ccn1 (stereo not drawn) [Compound 234]
50 to 250	Cn1nccc1-c1n[nH]c2cc3c(cc12)CN(Cc1cccc(Cl)c1)C(=O)N3 [Compound 235]
50 to 250	Cc1cc(-c2n[nH]c3cc4c(cc23)CN([C@@H]2CCCN(CC(O)C(C)(C)C)C2)C(=O)N4)ccn1 (stereo partly drawn) [Compound 236]
< 50	Cc1cc(-c2n[nH]c3cc4c(cc23)CN([C@@H]2CCN(CC(F)(F)F)C2)C(=O)N4)cc(C)n1 [Compound 237]
50 to 250	Cc1cc(-c2n[nH]c3cc4c(cc23)CN([C@@H]2CCCN(c3cccc(C)n3)C2)C(=O)N4)ccn1 [Compound 238]
< 50	Cc1cc(-c2n[nH]c3cc4c(cc23)CN(C2CCCC2)C(=O)N4)cc(C)n1 [Compound 239]
< 50	Cc1cc(-c2n[nH]c3cc4c(cc23)CN(Cc2cccc(C(F)(F)F)c2)C(=O)N4)ccn1 [Compound 240]
50 to 250	Cc1cc(-c2n[nH]c3cc4c(cc23)CN([C@@H]2CN(CC(F)(F)F)C[C@H]2c2ccccc2)C(=O)N4)cc(C)n1 [Compound 242]
< 50	Cc1cc(-c2n[nH]c3cc4c(cc23)CN(C2CCC2)C(=O)N4)ccn1 [Compound 243]
< 50	Cc1cc(-c2n[nH]c3cc4c(cc23)CN([C@@H]2CCCN(CC(F)(F)F)C2)C(=O)N4)cc(C)n1 [Compound 244]
< 50	Cc1cc(-c2n[nH]c3cc4c(cc23)CN([C@@H]2CCCN(Cc3ccc(C)s3)C2)C(=O)N4)ccn1 [Compound 245]
< 50	Cc1cc(-c2n[nH]c3cc4c(cc23)CN(Cc2nc(C)cs2)C(=O)N4)ccn1 [Compound 246]
< 50	Cc1cc(-c2n[nH]c3cc4c(cc23)CN([C@@H]2CCCN(C(C)C)C2)C(=O)N4)ccn1 [Compound 247]
50 to 250	Cc1cc(-c2n[nH]c3cc4c(cc23)CN([C@@H]2CCN(c3cccc(Cl)c3)C2)C(=O)N4)ccn1 [Compound 249]
< 50	Cc1cc(-c2n[nH]c3cc4c(cc23)CN(CC2CCOCC2)C(=O)N4)cc(C)n1 [Compound 250]
< 50	Cc1cc(-c2n[nH]c3cc4c(cc23)CN([C@@H]2CCCN(Cc3csc(C)c3)C2)C(=O)N4)ccn1 [Compound 251]
< 50	Cc1cc(-c2n[nH]c3cc4c(cc23)CN([C@@H]2CCCN(Cc3ccsc3)C2)C(=O)N4)ccn1 [Compound 252]
< 50	Cc1cc(-c2n[nH]c3cc4c(cc23)CN(CC2CCC2)C(=O)N4)ccn1 [Compound 253]
< 50	Cc1cc(-c2n[nH]c3cc4c(cc23)CN([C@@H]2CCCN(Cc3cccs3)C2)C(=O)N4)ccn1 [Compound 254]
< 50	Cc1cc(-c2n[nH]c3cc4c(cc23)CN([C@@H]2CCN(C)C2)C(=O)N4)ccn1 [Compound 255]
< 50	CCN1CC[C@@H](N2Cc3cc4c(-c5ccnc(C)c5)n[nH]c4cc3NC2=O)C1 [Compound 256]
50 to 250	Cc1cc(-c2n[nH]c3cc4c(cc23)CN([C@@H]2CCN(c3ccc(F)cn3)C2)C(=O)N4)ccn1 [Compound 257]
< 50	Cc1cc(-c2n[nH]c3cc4c(cc23)CN(CC2CC2)C(=O)N4)ccn1 [Compound 258]
< 50	Cn1cc(-c2n[nH]c3cc4c(cc23)CN([C@@H]2CCN(CC(F)(F)F)C2)C(=O)N4)cn1 [Compound 259]
250 to 1000	CN(C)CCN1CCN(c2n[nH]c3cc4c(cc23)CN(Cc2ccc(F)c(Cl)c2)C(=O)N4)CC1 [Compound 260]
< 50	Cn1nccc1-c1n[nH]c2cc3c(cc12)CN([C@@H]1CCCN(Cc2ccccc2)C1)C(=O)N3 [Compound 261]
